Laboratory results reported in the NIST ThermoML archive (doi:10.1021/je100148h).
Values joined by “and” are separate entries in the source; they are usually repeats but may differ in a detail not shown here. Identical values can stand only once. Numbers after ± are expanded uncertainties.

Conditions: Burnett expansion method

Compound: [Ar] [argon]
- mass density (318.75 K, 217.45 kPa, Gas): 3.2819 ± 0.0091 kg/m3 and 3.2809 ± 0.0091 kg/m3
- mass density (318.75 K, 299.59 kPa, Gas): 4.5227 ± 0.0091 kg/m3 and 4.5217 ± 0.0091 kg/m3
- mass density (318.75 K, 412.69 kPa, Gas): 6.2318 ± 0.0091 kg/m3 and 6.2327 ± 0.0091 kg/m3
- mass density (318.75 K, 568.39 kPa, Gas): 8.5885 ± 0.0091 kg/m3 and 8.5891 ± 0.0091 kg/m3
- mass density (318.75 K, 782.65 kPa, Gas): 11.8364 ± 0.0091 kg/m3 and 11.8363 ± 0.0091 kg/m3
- mass density (318.75 K, 1077.3 kPa, Gas): 16.3128 ± 0.0091 kg/m3 and 16.3112 ± 0.0091 kg/m3
- mass density (318.75 K, 2800.7 kPa, Gas): 42.6996 ± 0.0093 kg/m3 and 42.685 ± 0.0093 kg/m3
- mass density (318.75 K, 3845.5 kPa, Gas): 58.8449 ± 0.0093 kg/m3 and 58.8199 ± 0.0093 kg/m3
- mass density (318.75 K, 5275.1 kPa, Gas): 81.0918 ± 0.0094 kg/m3 and 81.0507 ± 0.0094 kg/m3
- mass density (318.75 K, 7231.5 kPa, Gas): 111.747 ± 0.0094 kg/m3 and 111.681 ± 0.0094 kg/m3
- mass density (318.76 K, 157.82 kPa, Gas): 2.3805 ± 0.0091 kg/m3 and 2.3815 ± 0.0091 kg/m3
- mass density (318.76 K, 1482.3 kPa, Gas): 22.4815 ± 0.0092 kg/m3 and 22.4774 ± 0.0092 kg/m3
- mass density (318.76 K, 2038.2 kPa, Gas): 30.9829 ± 0.0092 kg/m3 and 30.9748 ± 0.0092 kg/m3

Compound: O=C=O [carbon dioxide]
- mass density (343.13 K, 214.49 kPa, Fluid (supercritical or subcritical phases)): 3.3311 ± 0.0094 kg/m3 and 3.3345 ± 0.0094 kg/m3
- mass density (343.13 K, 295.01 kPa, Fluid (supercritical or subcritical phases)): 4.5929 ± 0.0094 kg/m3 and 4.5951 ± 0.0094 kg/m3
- mass density (343.13 K, 405.34 kPa, Fluid (supercritical or subcritical phases)): 6.3329 ± 0.0095 kg/m3 and 6.3325 ± 0.0095 kg/m3
- mass density (343.13 K, 556.21 kPa, Fluid (supercritical or subcritical phases)): 8.7319 ± 0.0097 kg/m3 and 8.7265 ± 0.0098 kg/m3
- mass density (343.13 K, 761.77 kPa, Fluid (supercritical or subcritical phases)): 12.0399 ± 0.0096 kg/m3 and 12.0258 ± 0.0096 kg/m3
- mass density (343.13 K, 1040.8 kPa, Fluid (supercritical or subcritical phases)): 16.6004 ± 0.0099 kg/m3 and 16.5719 ± 0.0099 kg/m3
- mass density (343.13 K, 1417 kPa, Fluid (supercritical or subcritical phases)): 22.8886 ± 0.01 kg/m3 and 22.8367 ± 0.01 kg/m3
- mass density (343.13 K, 1919.8 kPa, Fluid (supercritical or subcritical phases)): 31.5581 ± 0.01 kg/m3 and 31.4693 ± 0.01 kg/m3
- mass density (343.13 K, 2584.2 kPa, Fluid (supercritical or subcritical phases)): 43.5107 ± 0.011 kg/m3 and 43.3646 ± 0.011 kg/m3
- mass density (343.13 K, 3447.3 kPa, Fluid (supercritical or subcritical phases)): 59.9881 ± 0.012 kg/m3 and 59.7539 ± 0.012 kg/m3
- mass density (343.13 K, 4543 kPa, Fluid (supercritical or subcritical phases)): 82.704 ± 0.014 kg/m3 and 82.3364 ± 0.014 kg/m3
- mass density (343.13 K, 5888.2 kPa, Fluid (supercritical or subcritical phases)): 114.017 ± 0.03 kg/m3 and 113.448 ± 0.033 kg/m3
- mass density (343.13 K, 7469.2 kPa, Fluid (supercritical or subcritical phases)): 157.178 ± 0.017 kg/m3 and 156.31 ± 0.016 kg/m3
